In US7842802B2, “Vinorelbine derivatives” (priority 2003, dated 2010):
Read-outs that look alike come from different tables or passages of the source.

Key:
[1] = test system: MCF-7 human breast carcinoma line; assay: MCF-7 GI50 determination (crystal violet); assay type: cell-based; settings: MCF-7, 4 days of treatment, crystal violet, read-out: MCF-7 Cells GI50
Protocol: Growth inhibition (GI50) values were measured on the human breast carcinoma line, MCF-7. MCF-7 cells were plated at 2×10^4 cells/well in 96 well plates and grown for 24 hours in drug free media. On day 2, test compounds were added to the plates at 10-fold dilutions. Four days later, cells were fixed by the addition of glutaraldehyde to 0.75%. After 30 min, the fixed cells were extensively rinsed with distilled water and dried at room temperature for one hour. The cells were then stained with a 0.2% crystal violet solution for one hour at room temperature. Unbound stain was removed by ten rinses with tap water and plates were allowed to air dry for 30 min. The crystal violet was then solubilized by the addition of 10% acetic acid for 15 min and quantified by measuring absorbance at 570 nm on a Molecular Devices microplate reader. Growth inhibition was calculated according to the following equation: GI=[…], where the optical density (OD) of the test well after 4 days of treatment was T, the OD of the wells in the control plate on day 0 was T0. Plots of percent growth inhibition versus inhibitor concentration were used to determine the GI50.

[2] = test system: OVCAR-5; assay: NCI 60-cell line growth inhibition assay, OVCAR-5; assay type: cell-based; settings: Homo sapiens, Ovarian
Source text: (§1) The following data in Table 4 summarize the growth inhibition properties of several compounds of the present invention against 60-human transformed cell lines.

[3] = test system: SK-OV-3; assay: NCI 60-cell line growth inhibition assay, SK-OV-3; assay type: cell-based; settings: Homo sapiens, Ovarian
Source text: as §1

[4] = test system: HCC-2998; assay: NCI 60-cell line growth inhibition assay, HCC-2998; assay type: cell-based; settings: Homo sapiens, Colon
Source text: as §1

[5] = test system: COLO 205; assay: NCI 60-cell line growth inhibition assay, COLO 205; assay type: cell-based; settings: Homo sapiens, Colon
Source text: as §1

[6] = test system: SNB-19; assay: NCI 60-cell line growth inhibition assay, SNB-19; assay type: cell-based; settings: Homo sapiens, CNS
Source text: as §1

[7] = test system: MDA-MB-435; assay: NCI 60-cell line growth inhibition assay, MDA-MB-435; assay type: cell-based, human; settings: Breast
Source text: as §1

[8] = test system: OVCAR-4; assay: NCI 60-cell line growth inhibition assay, OVCAR-4; assay type: cell-based; settings: Homo sapiens, Ovarian
Source text: as §1

[9] = test system: SK-MEL-28; assay: NCI 60-cell line growth inhibition assay, SK-MEL-28; assay type: cell-based; settings: Homo sapiens, Melanoma
Source text: as §1

[10] = test system: SK-MEL-5; assay: NCI 60-cell line growth inhibition assay, SK-MEL-5; assay type: cell-based; settings: Homo sapiens, Melanoma
Source text: as §1

[11] = test system: MOLT-4; assay: NCI 60-cell line growth inhibition assay, MOLT-4; assay type: cell-based; settings: Homo sapiens, Leukemia
Source text: as §1

[12] = test system: SF-268; assay: NCI 60-cell line growth inhibition assay, SF-268; assay type: cell-based, human; settings: CNS
Source text: as §1

[13] = test system: EKVX; assay: NCI 60-cell line growth inhibition assay, EKVX; assay type: cell-based; settings: Homo sapiens, Non-Small Cell Lung
Source text: as §1

[14] = test system: 786-0; assay: NCI 60-cell line growth inhibition assay, 786-0; assay type: cell-based, human; settings: Renal
Source text: as §1

[15] = test system: OVCAR-3; assay: NCI 60-cell line growth inhibition assay, OVCAR-3; assay type: cell-based, human; settings: Ovarian
Source text: as §1

[16] = test system: CAKI-1; assay: NCI 60-cell line growth inhibition assay, CAKI-1; assay type: cell-based, human; settings: Renal
Source text: as §1

[17] = test system: NCI-H322M; assay: NCI 60-cell line growth inhibition assay, NCI-H322M; assay type: cell-based, human; settings: Non-Small Cell Lung
Source text: as §1

[18] = test system: BT-549; assay: NCI 60-cell line growth inhibition assay, BT-549; assay type: cell-based, human; settings: Breast
Source text: as §1

[19] = test system: HCT-116; assay: NCI 60-cell line growth inhibition assay, HCT-116; assay type: cell-based, human; settings: Colon
Source text: as §1

[20] = test system: A498; assay: NCI 60-cell line growth inhibition assay, A498; assay type: cell-based, human; settings: Renal
Source text: as §1

CCC1=C[C@H]2CN(C1)Cc1c([nH]c3ccc(I)cc13)[C@@](C(=O)OC)(c1cc3c(cc1OC)N(C)[C@H]1[C@@](O)(C(=O)OC)[C@H](OC(C)=O)C4C(CC)=CCN5CC[C@]31[C@H]45)C2 (some centres unmarked) [Example 2, 11′-iodovinorelbine]
GI50 ([1]; Homo sapiens, MCF7, 96 h): 7 nM | GI50 [2]: 225 nM | GI50 [3]: 63.3 nM | GI50 [4]: < 10 nM | GI50 [5]: 17.9 nM | GI50 [6]: 62.5 nM | GI50 ([7]; Homo sapiens): 1370 nM | GI50 [8]: 264 nM | GI50 [9]: 91.4 nM | GI50 [10]: 18.8 nM | GI50 [11]: 24.1 nM | GI50 ([12]; Homo sapiens): 78.8 nM | GI50 [13]: 72.6 nM

11′-bromovinorelbine [Example 1]
GI50 [1]: 3 nM | GI50 [14]: < 10 nM | GI50 [15]: < 10 nM | GI50 [7]: < 10 nM | GI50 [16]: < 10 nM | GI50 [17]: < 10 nM | GI50 [18]: < 10 nM | GI50 [12]: < 10 nM | GI50 [19]: < 10 nM | GI50 [20]: < 10 nM
